Biological target: T1, human HSD17B13 (Homo sapiens, UniProt Q7Z5P4)
T1 sequence (Q7Z5P4 20-300): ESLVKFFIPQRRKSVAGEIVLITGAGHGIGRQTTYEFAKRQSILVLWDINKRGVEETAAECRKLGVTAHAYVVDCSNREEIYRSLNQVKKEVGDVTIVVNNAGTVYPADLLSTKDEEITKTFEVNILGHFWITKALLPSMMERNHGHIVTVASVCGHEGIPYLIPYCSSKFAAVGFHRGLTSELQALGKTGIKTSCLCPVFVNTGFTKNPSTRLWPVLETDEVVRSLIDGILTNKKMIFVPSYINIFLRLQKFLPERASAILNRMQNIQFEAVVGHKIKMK
Assay: Substrate screening of steroid and bioactive lipid libraries against purified recombinant HSD17B13 (NADH-linked luciferase assay)
Format: biochemical
Settings: for HSD17B13 Enzymatic Activity Relative Light Units: 500 μM NAD+, 100 ng enzyme, 3 hours at 23° C.; for HSD17B13 Enzymatic Activity Percent Estradiol Control: normalized to 50 μM estradiol after subtraction of 5% DMSO
In short: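 Recombinant human HSD17B13 (100 ng) incubated 3 h at 23° C in 0.2 M Tris-HCl pH 7.5 with 500 μM NAD+ and 5 μM bioactive lipid or 50 μM steroid (5% DMSO). NADH measured by luciferase luminescence after 1 h; values as percent of 50 μM estradiol control after 5% DMSO subtraction.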

[1] = Bioactive Lipid Library, 5 μM bioactive lipid (Estradiol Control 50 μM)
[2] = Bioactive Lipid Library, 5 μM bioactive lipid

| Molecule | HSD17B13 Enzymatic Activity Relative Light Units [1] [RLU] | HSD17B13 Enzymatic Activity Percent Estradiol Control [2] [%] | HSD17B13 Enzymatic Activity Relative Light Units (Steroid Library, 50 μM steroid) [RLU] | HSD17B13 Enzymatic Activity Percent Estradiol Control (Steroid Library, 50 μM steroid) [%] |
| --- | --- | --- | --- | --- |
| CCCCC/C=C\C[C@@H](O)/C=C/C=C/C=C\[C@@H](O)CCCC(=O)N(C)C [Leukotriene B4 dimethyl amide] | 1910040 | 128.60 | – | – |
| CCCCC/C=C\C\C=C/C=C/C=C/[C@@H](SC[C@H](NC(=O)CC[C@@H](N)C(=O)O)C(=O)O)[C@@H](O)CCCC(=O)O [Leukotriene F4] | 400400 | 9.27 | – | – |
| CCCCC[C@H](O)/C=C/C=C\C=C\C=C\[C@@H](O)[C@@H](O)CCCC(=O)O [Lipoxin A4] | 352680 | 2.09 | – | – |
| CN(C)C(=O)CCSC(SCCC(=O)O)c1cccc(/C=C/c2ccc3ccc(Cl)cc3n2)c1 (centres unmarked) [MK-571] | 281520 | −0.12 | – | – |
| CCCCCCCC/C=C\CCCCCCCC(=O)O [Oleic Acid] | – | – | 17520 | −2.50 |
| C[C@]12C/C(=C/O)C(=O)C[C@@H]1CC[C@@H]1[C@@H]2CC[C@@]2(C)[C@H]1CC[C@]2(C)O [Oxymetholone] | – | – | 92000 | −1.20 |
| CCCCCCCCCCCCCCCC(=O)OC[C@H](COP(=O)([O-])OCC[N+](C)(C)C)OC(=O)CCCC(=O)O [PGPC] | 371440 | 6.98 | – | – |
| C[C@]12C=CC(=O)C=C1CC[C@@H]1[C@@H]2C(=O)C[C@@]2(C)[C@H]1CC[C@]2(O)C(=O)CO [Prednisone] | – | – | 196720 | 0.63 |
| CC(=O)[C@H]1CC[C@H]2[C@@H]3CCC4=CC(=O)CC[C@]4(C)[C@H]3CC[C@]12C [Progesterone] | – | – | 175680 | 0.26 |
| CCCCC[C@H](O)/C=C/[C@H]1C=CC(=O)[C@@H]1CCCCCCC(=O)NCCCCCNC(=O)CCCC[C@@H]1SC[C@@H]2NC(=O)N[C@@H]21 [Prostaglandin A1-biotin] | 309320 | 2.07 | – | – |
| CC/C=C\C[C@H](O)/C=C/[C@H]1C=CC(=O)[C@@H]1C/C=C\CCCC(=O)O [Prostaglandin A3] | 227000 | −4.43 | – | – |
| CC/C=C\C[C@H](O)/C=C/[C@H]1C(=O)C[C@H](O)[C@@H]1C/C=C\CCCC(=O)O [Prostaglandin D3] | 298960 | 1.25 | – | – |
| CCCCC[C@H](O)/C=C/[C@H]1[C@H](O)CC(=O)[C@@H]1C/C=C\CCCC(=O)Oc1ccc(NC(=O)c2ccccc2)cc1 [Prostaglandin E2 p-benzamidophenyl ester] | 404280 | 9.58 | – | – |
| CCCCC[C@H](O)/C=C/[C@H]1[C@H](O)CC(=O)[C@@H]1C/C=C\CCCC(=O)NCCCCCNC(=O)CCCC[C@H]1SC[C@@H]2NC(=O)N[C@@H]21 [Prostaglandin E2-biotin] | 389960 | 4.90 | – | – |
| CC/C=C\C[C@H](O)/C=C/[C@H]1[C@H](O)CC(=O)[C@@H]1C/C=C\CCCC(=O)O [Prostaglandin E3] | 379960 | 7.66 | – | – |
| CCCCC[C@H](O)/C=C/[C@@H]1[C@@H](C/C=C\CCCC(=O)NCCCCCNC(=O)CCCC[C@H]2SC[C@@H]3NC(=O)N[C@@H]32)[C@@H](O)C[C@H]1O [Prostaglandin F2α-biotin] | 340200 | 1.14 | – | – |
| CC/C=C\C[C@H](O)/C=C/[C@@H]1[C@@H](C/C=C\CCCC(=O)O)[C@@H](O)C[C@H]1O [Prostaglandin F3α] | 385360 | 8.08 | – | – |
| CCCCC[C@H](O)/C=C/[C@@H]1[C@@H](CCCCCCC(=O)O)[C@@H]2C[C@H]1OO2 [Prostaglandin H1] | 145840 | −10.85 | – | – |
| CCCCC[C@H](O)/C=C/[C@@H]1[C@@H](C/C=C\CCCC(=O)O)[C@@H]2C[C@H]1OO2 [Prostaglandin H2] | 166640 | −9.20 | – | – |
| CC/C=C\C[C@H](O)/C=C/[C@@H]1[C@H]2C/C(=C/CCCC(=O)[O-])O[C@H]2C[C@H]1O.[Na+] [Prostaglandin I3 (sodium salt)] | 333560 | 3.99 | – | – |
| CCCCC[C@H](O)/C=C/[C@H]1C(=O)CC(=O)[C@@H]1CCCCCCC(=O)O [Prostaglandin K1] | 223160 | −4.74 | – | – |
| CCCCC[C@H](O)/C=C/[C@H]1C(=O)CC(=O)[C@@H]1C/C=C\CCCC(=O)O [Prostaglandin K2] | 155600 | −10.08 | – | – |

| Molecule | HSD17B13 Enzymatic Activity Relative Light Units [1] [RLU] | HSD17B13 Enzymatic Activity Percent Estradiol Control [2] [%] | HSD17B13 Enzymatic Activity Relative Light Units (Steroid Library, 50 μM steroid) [RLU] | HSD17B13 Enzymatic Activity Percent Estradiol Control (Steroid Library, 50 μM steroid) [%] |
| --- | --- | --- | --- | --- |
| C[C@]12CC[C@H](O)C[C@H]1CC[C@@H]1[C@@H]2CC[C@]2(C)[C@@](O)(c3ccoc3)CC[C@]12O [Rostafuroxin] | – | – | 187520 | 0.47 |
| CC(=O)S[C@@H]1CC2=CC(=O)CC[C@]2(C)[C@H]2CC[C@@]3(C)[C@@H](CC[C@@]34CCC(=O)O4)[C@H]12 [Spironolactone] | – | – | 184280 | 0.41 |
| C[C@]12Cc3c[nH]nc3C[C@@H]1CC[C@@H]1[C@@H]2CC[C@@]2(C)[C@H]1CC[C@]2(C)O [Stanazol] | – | – | 140840 | −0.35 |
| C[C@@H]1C[C@@]2(C)[C@@H](CC[C@@H]3[C@@H]2CC[C@@]2(C)[C@H]3CC[C@]2(C)O)CC1=O [Superdrol] | – | – | 105920 | −0.95 |
| CC/C=C\C[C@H](O)/C=C/[C@H]1OC(O)C[C@H](O)[C@@H]1C/C=C\CCCC(=O)O (some centres unmarked) [Thromboxane B3] | 348080 | 5.14 | – | – |
| CCCCC/C=C\C[C@@H](O)/C=C/c1cccc(C[C@@H](O)CCCCO)n1 [U-75302] | 425520 | 7.59 | – | – |
| CCCCC/C=C\C[C@@H](O)/C=C/C=C\CCC(=O)O [tetranor-12(R)-HETE] | 708640 | 31.37 | – | – |
| CCCCC/C=C\C[C@H](O)/C=C/C=C\CCC(=O)O [tetranor-12(S)-HETE] | 379280 | 4.10 | – | – |
| [2H]C([2H])(CC(=O)CC[C@H]1C(=O)C[C@H](O)[C@@H]1CCC(=O)O)C([2H])([2H])C([2H])([2H])C(=O)O [tetranor-PGDM-d6] | 375520 | 3.81 | – | – |
| O=C(O)CCCCC(=O)CC[C@H]1[C@H](O)CC(=O)[C@@H]1CCC(=O)O [tetranor-PGEM] | 348440 | 5.17 | – | – |
| O=C(O)CCCCC(=O)CC[C@@H]1[C@@H](CCC(=O)O)[C@@H](O)C[C@H]1O [tetranor-PGFM] | 367640 | 6.68 | – | – |
| CCCCC[C@H](O)C/C=C1/C(=O)C=C[C@@H]1C/C=C\CCCC(=O)O [Δ12-Prostaglandin J2] | 343320 | 4.76 | – | – |
| CC/C=C\C[C@H](O)/C=C/[C@@H]1[C@@H](CC(=O)CCCCC(=O)O)[C@@H](O)C[C@H]1O [Δ17-6-keto Prostaglandin F1α] | 286120 | 0.24 | – | – |
| (±)11(12)-EET | 306600 | 1.47 | – | – |
| Androstanolone acetate | – | – | 200560 | 0.70 |
| Cholesteryl Linoleate Hydroperoxides | 256120 | −2.28 | – | – |
| D-myo-Inositol-1,2,3,4-tetraphosphate (sodium salt) | 447960 | 9.28 | – | – |
| Epiandrosterone acetate | – | – | 210960 | 0.88 |
| Prostaglandin D2-biotin | 367880 | 3.24 | – | – |
| Ptdlns-(3)-P1 (1,2-dioctanoyl) (sodium salt) | 319680 | −0.40 | – | – |
| Ptdlns-(3)-P1 (1,2-dipalmitoyl) (ammonium salt) | 15520 | −23.38 | – | – |

Source: patent publication US11479802B2, “Assays for screening activity of modulators of members of the hydroxy steroid (17-beta) dehydrogenase (HSD17B) family” (Regeneron Pharmaceuticals, Inc., priority 2017, dated 2022)
